According to patent publication US10626095B2, “Cyanotriazole compounds” (OTSUKA PHARMACEUTICAL CO., LTD., priority 2013, dated 2020):

Legend:
[1] = test system: NaCT-CHO (CHO cells stably expressing human NaCT); experiment: Assay of the citric acid cycle activation ([1,5-14C]-citric acid, diffusion of [14C]-CO2); format: cell-based; settings: 1 hour incubation at 37° C. with [1,5-14C]-citric acid
Outline: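 NaCT-CHO cells (pME-CHO empty-vector cells for non-specific counts) were incubated 1 h at 37 °C in Na+-containing HEPES-Tris pH 7.4 with compound plus an equal volume of 0.4 mM [1,5-14C]-citric acid solution. Residual cell radioactivity was counted, [14C]-CO2 diffusion was taken as (Total−R)/(Total−NS)×100%, and EC50 was derived by regression.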

[2] = test system: Zucker Diabetic Fatty (ZDF) rat; experiment: Meal load test in type 2 diabetic model rats (postprandial blood glucose); format: in vivo; design: unit not given here; settings: ZDF rats fasted overnight, oral 10 mg/kg in 5% Arabia gum, blood glucose one hour after meal loading (50 kcal/kg)
Experimental: Effects on Type 2 Diabetes: Meal Load Test
To evaluate whether a cyanotriazol compound improves diabetes or not, especially related to postprandial blood glucose, meal load test was performed using one of type 2 diabetic model rats, the Zucker Diabetic Fatty (ZDF) rat (Charles river, Japan). About 24 animals fasted overnight (17 h) were taken blood samples from the tail veins, and measured blood glucose levels (Pre BG) and body weights (BW). Proper animals were selected and divided into […] (n=6) based on the Pre BG and BW using SAS Statistical Analysis System (SAS institute Japan Ltd. Release 9.1). The compounds to be tested (10 or 30 mg/kg body weight in 5% Arabia gum) or Arabia gum solution only (vehicle group) were orally administrated via gavage two hours prior to or just before meal loading (50 kcal/kg body weight). The meal suspension was prepared by mixing purified AIN-93G (Norsan Corp, Yokohama, Japan) and distilled water (2:3, w/v). One-hour after meal loading, blood glucose (BG1h) of each animal was measured. Effectiveness of each compound was shown by ? BG1h (BG1h difference between compound group and vehicle group). Although a set of 24 animals was used several times (from 13 weeks to 21 weeks of age), at least a one-week interval was placed from one to another test.

Compound: Cc1cc(-c2ccc(C(F)(F)F)nc2)cc(-c2nn[nH]c2C#N)c1 [Example 11, 5-[3-methyl-5-(6-trifluoromethyl-pyridin-3-yl)-phenyl]-3H-[1,2,3]triazole-4-carbonitrile]
- EC50 [1]: 0.67 µM
- BG1h (BG1h difference between compound group and vehicle group) [2]: −93.2

Compound: N#Cc1[nH]nnc1-c1cc(-c2cccc(C(F)(F)F)n2)cc(C(F)(F)F)c1 [Example 14, 5-[3-trifluoromethyl-5-(6-trifluoromethyl-pyridin-2-yl)-phenyl]-3H-[1,2,3]triazole-4-carbonitrile]
- EC50 [1]: 0.5 µM
- BG1h (BG1h difference between compound group and vehicle group) [2]: −79.2

Compound: COc1cc(-c2cc(C(F)(F)F)ccn2)cc(-c2nn[nH]c2C#N)c1 [Example 15, 5-[3-methoxy-5-(4-trifluoromethyl-pyridin-2-yl)-phenyl]-3H-[1,2,3]triazole-4-carbonitrile]
- EC50 [1]: 0.49 µM
- BG1h (BG1h difference between compound group and vehicle group) [2]: −50.5

Compound: N#Cc1[nH]nnc1-c1cccc(-c2nccc(C(F)(F)F)n2)c1 [Example 21, 5-[3-(4-trifluoromethyl-pyrimidin-2-yl)-phenyl]-3H-[1,2,3]triazole-4-carbonitrile]
- EC50 [1]: 0.77 µM
- BG1h (BG1h difference between compound group and vehicle group) [2]: −95.7

Compound: Cc1cc(-c2nccc(C(F)(F)F)n2)cc(-c2nn[nH]c2C#N)c1 [Example 22, 5-[3-methyl-5-(4-trifluoromethyl-pyrimidin-2-yl)-phenyl]-3H-[1,2,3]triazole-4-carbonitrile]
- EC50 [1]: 0.65 µM
- BG1h (BG1h difference between compound group and vehicle group) [2]: −108.5

Compound: N#Cc1[nH]nnc1-c1cc(Cl)cc(-c2nccc(C(F)(F)F)n2)c1 [Example 23, 5-[3-chloro-5-(4-trifluoromethyl-pyrimidin-2-yl)-phenyl]-3H-[1,2,3]triazole-4-carbonitrile]
- EC50 [1]: 0.45 µM
- BG1h (BG1h difference between compound group and vehicle group) [2]: −137.0

Compound: N#Cc1[nH]nnc1-c1cc(Cl)cc(-c2ccc(OC(F)(F)F)cc2)c1 [Example 29, 5-(5-chloro-4′-trifluoromethoxy-biphenyl-3-yl)-3H-[1,2,3]triazole-4-carbonitrile]
- EC50 [1]: 0.68 µM
- BG1h (BG1h difference between compound group and vehicle group) [2]: −37.3

Compound: N#Cc1ccc(/C=C/c2cccc(-c3nn[nH]c3C#N)c2)cc1 [Example 41, 5-{3-[(E)-2-(4-cyano-phenyl)-vinyl]-phenyl}-3H-[1,2,3]triazole-4-carbonitrile]
- EC50 [1]: 0.39 µM
- BG1h (BG1h difference between compound group and vehicle group) [2]: −158.0

Compound: N#Cc1[nH]nnc1-c1cc(Cl)cc(/C=C/c2cccc(C(F)(F)F)c2)c1 [Example 47, 5-{3-chloro-5-[(E)-2-(3-trifluoromethyl-phenyl)-vinyl]-phenyl}-3H-[1,2,3]triazole-4-carbonitrile]
- EC50 [1]: 1.07 µM
- BG1h (BG1h difference between compound group and vehicle group) [2]: −89.7

Compound: N#Cc1[nH]nnc1-c1cccc(/C=C/c2cncc(C(F)(F)F)c2)c1 [Example 49, 5-{3-[(E)-2-(5-trifluoromethyl-pyridin-3-yl)-vinyl]-phenyl}-3H-[1,2,3]triazole-4-carbonitrile]
- EC50 [1]: 0.48 µM
- BG1h (BG1h difference between compound group and vehicle group) [2]: −78.7

Compound: N#Cc1[nH]nnc1-c1cccc(/C=C/c2cc(C(F)(F)F)ccn2)c1 [Example 50, 5-{3-[(E)-2-(4-trifluoromethyl-pyridin-2-yl)-vinyl]-phenyl}-3H-[1,2,3]triazole-4-carbonitrile]
- EC50 [1]: 0.44 µM
- BG1h (BG1h difference between compound group and vehicle group) [2]: −120.0

Compound: N#Cc1[nH]nnc1-c1cc(/C=C/c2cccc(C(F)(F)F)n2)cc(C(F)(F)F)c1 [Example 51, 5-{3-trifluoromethyl-5-[(E)-2-(6-trifluoromethyl-pyridin-2-yl)-vinyl]-phenyl}-3H-[1,2,3]triazole-4-carbonitrile]
- EC50 [1]: 0.76 µM
- BG1h (BG1h difference between compound group and vehicle group) [2]: −79.0

Compound: N#Cc1[nH]nnc1-c1cccc(/C=C/c2nccc(C(F)(F)F)n2)c1 [Example 52, 5-{3-[(E)-2-(4-trifluoromethyl-pyrimidin-2-yl)-vinyl]-phenyl}-3H-[1,2,3]triazole-4-carbonitrile]
- EC50 [1]: 0.58 µM
- BG1h (BG1h difference between compound group and vehicle group) [2]: −120.4

Compound: N#Cc1[nH]nnc1-c1cccc(COc2cc(C(F)(F)F)ccn2)c1 [Example 55, 5-[3-(4-trifluoromethyl-pyridin-2-yloxymethyl)-phenyl]-3H-[1,2,3]triazole-4-carbonitrile]
- EC50 [1]: 0.65 µM
- BG1h (BG1h difference between compound group and vehicle group) [2]: −110.2

Compound: N#Cc1[nH]nnc1-c1cccc(OCc2cc(C(F)(F)F)ccc2C(F)(F)F)c1 [Example 60, 5-[3-(2,5-bis-trifluoromethyl-benzyloxy)-phenyl]-3H-[1,2,3]triazole-4-carbonitrile]
- EC50 [1]: 0.3 µM
- BG1h (BG1h difference between compound group and vehicle group) [2]: −132.0

Compound: N#Cc1[nH]nnc1-c1ccc(-c2nccc(C(F)(F)F)n2)cc1 [Example 70, 5-[4-(4-trifluoromethyl-pyrimidin-2-yl)-phenyl]-3H-[1,2,3]triazole-4-carbonitrile]
- EC50 [1]: 0.51 µM
- BG1h (BG1h difference between compound group and vehicle group) [2]: −137.2

Compound: N#Cc1[nH]nnc1-c1csc(-c2ccc(Cl)cc2)n1 [Example 75, 5-[2-(4-chloro-phenyl)-thiazol-4-yl]-3H-[1,2,3]triazole-4-carbonitrile]
- EC50 [1]: 0.88 µM
- BG1h (BG1h difference between compound group and vehicle group) [2]: −83.2

Compound: N#Cc1[nH]nnc1-c1csc(-c2ccc(Cl)c(Cl)c2)n1 [Example 77, 5-[2-(3,4-dichloro-phenyl)-thiazol-4-yl]-3H-[1,2,3]triazole-4-carbonitrile]
- EC50 [1]: 0.91 µM
- BG1h (BG1h difference between compound group and vehicle group) [2]: −61.3

Compound: N#Cc1[nH]nnc1-c1csc(-c2cccc(C(F)(F)F)c2)n1 [Example 78, 5-[2-(3-trifluoromethyl-phenyl)-thiazol-4-yl]-3H-[1,2,3]triazole-4-carbonitrile]
- EC50 [1]: 0.51 µM
- BG1h (BG1h difference between compound group and vehicle group) [2]: −93.7

Compound: N#Cc1[nH]nnc1-c1csc(-c2cccc(OC(F)(F)F)c2)n1 [Example 79, 5-[2-(3-trifluoromethoxy-phenyl)-thiazol-4-yl]-3H-[1,2,3]triazole-4-carbonitrile]
- EC50 [1]: 0.62 µM
- BG1h (BG1h difference between compound group and vehicle group) [2]: −51.0

Compound: Cc1sc(-c2ccc(F)c(Cl)c2)nc1-c1nn[nH]c1C#N [Example 90, 5-[2-(3-chloro-4-fluoro-phenyl)-5-methyl-thiazol-4-yl]-3H-[1,2,3]triazole-4-carbonitrile]
- EC50 [1]: 0.56 µM
- BG1h (BG1h difference between compound group and vehicle group) [2]: −119.0

Compound: Cc1sc(-c2ccc(C(F)(F)F)cc2)nc1-c1nn[nH]c1C#N [Example 92, 5-[5-methyl-2-(4-trifluoromethyl-phenyl)-thiazol-4-yl]-3H-[1,2,3]triazole-4-carbonitrile]
- EC50 [1]: 0.82 µM
- BG1h (BG1h difference between compound group and vehicle group) [2]: −69.2

Compound: CCc1sc(-c2ccc(Cl)cc2)nc1-c1nn[nH]c1C#N [Example 98, 5-[2-(4-chloro-phenyl)-5-ethyl-thiazol-4-yl]-3H-[1,2,3]triazole-4-carbonitrile]
- EC50 [1]: 0.59 µM
- BG1h (BG1h difference between compound group and vehicle group) [2]: −87.9

Compound: CCc1sc(-c2ccc(C(F)(F)F)cn2)nc1-c1nn[nH]c1C#N [Example 100]
- EC50 [1]: 0.54 µM
- BG1h (BG1h difference between compound group and vehicle group) [2]: −100.5

Compound: N#Cc1[nH]nnc1-c1nc(-c2cccc(C(F)(F)F)c2)sc1Cl [Example 108, 5-[5-chloro-2-(3-trifluoromethyl-phenyl-phenyl)-thiazol-4-yl]-3H-[1,2,3]triazole-4-carbonitrile]
- EC50 [1]: 0.42 µM
- BG1h (BG1h difference between compound group and vehicle group) [2]: −101.9

Compound: N#Cc1[nH]nnc1-c1nc(-c2cccc(C(F)(F)F)c2)oc1C1CC1 [Example 120, 5-[5-cyclopropyl-2-(3-trifluoromethyl-phenyl)-oxazol-4-yl]-3H-[1,2,3]triazole-4-carbonitrile]
- EC50 [1]: 0.89 µM
- BG1h (BG1h difference between compound group and vehicle group) [2]: −114.3

Compound: CC(C)c1oc(-c2ccc(Cl)cc2)nc1-c1nn[nH]c1C#N [Example 122, 5-[2-(4-chloro-phenyl)-5-isopropyl-oxazol-4-yl]-3H-[1,2,3]triazole-4-carbonitrile]
- EC50 [1]: 0.51 µM
- BG1h (BG1h difference between compound group and vehicle group) [2]: −75.5

Compound: N#Cc1[nH]nnc1-c1ccc(/C=C/c2cccc(C(F)(F)F)c2)o1 [Example 137, 5-{5-[(E)-2-(3-trifluoromethyl-phenyl)-vinyl]-furan-2-yl}-3H-[1,2,3]triazole-4-carbonitrile]
- EC50 [1]: 0.57 µM
- BG1h (BG1h difference between compound group and vehicle group) [2]: −162.6

Compound: N#Cc1[nH]nnc1-c1ccc2ccn(CCCC(F)(F)F)c2c1 [Example 146]
- EC50 [1]: 0.41 µM
- BG1h (BG1h difference between compound group and vehicle group) [2]: −94.9

Compound: N#Cc1[nH]nnc1-c1cc2ccc(-c3ccc(F)cc3)cc2o1 [Example 147, 5-[6-(4-fluoro-phenyl)-benzofuran-2-yl]-3H-[1,2,3]triazole-4-carbonitrile]
- EC50 [1]: 1.66 µM
- BG1h (BG1h difference between compound group and vehicle group) [2]: −80.5

Compound: N#Cc1[nH]nnc1-c1cccc(-c2cc(F)cc(C(F)(F)F)c2)c1 [Example 220, 5-(5′-fluoro-3′-trifluoromethyl-biphenyl-3-yl)-3H-[1,2,3]triazole-4-carbonitrile]
- EC50 [1]: 0.35 µM
- BG1h (BG1h difference between compound group and vehicle group) [2]: −85.6
